Measured values taken from patent publication US20160183526A1, “FUNGICIDAL COMPOSITIONS” (Dow AgroSciences LLC, priority 2014, published 2016).

What was measured:
[1] = estimated from a survey of the literature; miscible means totally soluble in water in all amounts; cited from earlier work
[2] = Solubility of a mixture of Compound A and prothioconazole in benzyl acetate/AMD810 blends at 10° C. (HPLC); format: physicochemical; conditions: both actives saturated
Protocol: A study of the Compound A and prothioconazole solubility in blends of benzyl acetate/AMD810 was conducted. To each solvent blend both actives were added until each was saturated and the resulting mixtures were then stored at 10° C. until equilibrium was obtained. Aliquots of the supernatant layer were taken from each sample, filtered (0.45 μm mesh) and analyzed by HPLC to determine the solution concentration of each active in the blends.

[3] = Solubility of Compound A and prothioconazole in benzyl acetate/AMD810/cyclohexanone blends at 10° C.; format: physicochemical; conditions: one week
Protocol: A total of 20 g of each solvent blend was prepared per sample. For example, one of the blends (Blend 4) was prepared by combining cyclohexanone 0.2 (4 g), benzyl acetate 0.2 (4 g) and AMD810 0.6 (12 g). To Blend 4 were added amounts of Compound A and prothioconazole technical active ingredients to achieve saturation concentrations of each. The samples were then stored at 10° C. for one week and then were analysed for soluble active ingredient content.

[4] = Approximate relative solubility of active ingredients in organic solvents at ambient temperature; format: physicochemical

## CC(=O)OCc1ccccc1 [Benzyl acetate]
[1]
  Solubility of Solvent in Water: 1000 to 3100 µg/mL

## CCCCOC(=O)C(C)O (stereo not shown) [Butyl lactate]
[1]
  Solubility of Solvent in Water: 42000 µg/mL

## O=C1CCCCC1 [Cyclohexanone]
[1]
  Solubility of Solvent in Water: 8600 to 25000 µg/mL

## CCCCOC(=O)OCCCC [Di-n-butyl carbonate]
[1]
  Solubility of Solvent in Water: 820 µg/mL

## CCOCCOCCO [Diethylene glycol monoethyl ether]
[1]
  Solubility of Solvent in Water: Miscible

## CCOCCOCCOC(C)=O [Ethyl Diglycol Acetate]
[1]
  Solubility of Solvent in Water: Miscible

## CC(C)OC(=O)c1ccccc1 [Isopropyl benzoate]
[1]
  Solubility of Solvent in Water: 640 µg/mL

## CCCCCCCC/C=C\CCCCCCCC(=O)OC [Methyl oleate]
[1]
  Solubility of Solvent in Water: 1.1 µg/mL

## COC(=O)c1ccccc1O [Methyl salicylate]
[1]
  Solubility of Solvent in Water: <5000 µg/mL

## COC(=O)C(C)CCC(=O)N(C)C (stereo not shown) [Methyl-5-(Dimethylamino)-2-Methyl-5-Oxopentanoate]
[1]
  Solubility of Solvent in Water: 79000 µg/mL

## COC(=O)CCC(C)C(=O)OC (stereo not shown) [Pentanedioic acid, 2-methyl-1,5-dimethyl ester]
[1]
  Solubility of Solvent in Water: 25000 µg/mL

## CC1COC(=O)O1 (stereo not shown) [Propylene carbonate]
[1]
  Solubility of Solvent in Water: 17500 µg/mL

## OC(Cc1ccccc1Cl)(Cn1nc[nH]c1=S)C1(Cl)CC1 (stereo not shown) [Prothioconazole, prothioconazole]
[2]; benzyl acetate 0 wt % in blend with AMD810
  Prothioconazole Solubility at 10° C.: 31.3 % w/w
[2]; benzyl acetate 20 wt % in blend with AMD810
  Prothioconazole Solubility at 10° C.: 32.3 % w/w
[2]; benzyl acetate 40 wt % in blend with AMD810
  Prothioconazole Solubility at 10° C.: 33.1 % w/w
[2]; benzyl acetate 60 wt % in blend with AMD810
  Prothioconazole Solubility at 10° C.: 32.1 % w/w
[2]; benzyl acetate 80 wt % in blend with AMD810
  Prothioconazole Solubility at 10° C.: 26.6 % w/w
[2]; benzyl acetate 100 wt % in blend with AMD810
  Prothioconazole Solubility at 10° C.: 16.2 % w/w
[3]; Blend 1: cyclohexanone 0/benzyl acetate 0/AMD810 1 (weight fraction)
  Prothioconazole Solubility @ 10° C.: 34.3 % w/w
[3]; Blend 2: cyclohexanone 0/benzyl acetate 0.2/AMD810 0.8 (weight fraction)
  Prothioconazole Solubility @ 10° C.: 32.3 % w/w
[3]; Blend 3: cyclohexanone 0.2/benzyl acetate 0/AMD810 0.8 (weight fraction)
  Prothioconazole Solubility @ 10° C.: 33.9 % w/w
[3]; Blend 4: cyclohexanone 0.2/benzyl acetate 0.2/AMD810 0.6 (weight fraction)
  Prothioconazole Solubility @ 10° C.: 32.9 % w/w
[3]; Blend 5: cyclohexanone 0/benzyl acetate 0.4/AMD810 0.6 (weight fraction)
  Prothioconazole Solubility @ 10° C.: 33.1 % w/w
[3]; Blend 6: cyclohexanone 0.2/benzyl acetate 0.4/AMD810 0.4 (weight fraction)
  Prothioconazole Solubility @ 10° C.: 32.1 % w/w
[3]; Blend 7: cyclohexanone 0/benzyl acetate 0.6/AMD810 0.4 (weight fraction)
  Prothioconazole Solubility @ 10° C.: 32.1 % w/w
[3]; Blend 8: cyclohexanone 0/benzyl acetate 0.8/AMD810 0.2 (weight fraction)
  Prothioconazole Solubility @ 10° C.: 26.6 % w/w
[3]; Blend 10: cyclohexanone 0.2/benzyl acetate 0.6/AMD810 0.2 (weight fraction)
  Prothioconazole Solubility @ 10° C.: 29.9 % w/w
[3]; Blend 11: cyclohexanone 0/benzyl acetate 1/AMD810 0 (weight fraction)
  Prothioconazole Solubility @ 10° C.: 16.2 % w/w
[3]; Blend 12: cyclohexanone 0.2/benzyl acetate 0.8/AMD810 0 (weight fraction)
  Prothioconazole Solubility @ 10° C.: 18.4 % w/w
[4]; in 2-ethylhexanol
  Relative Solubility of Prothioconazole: Very Low (<10)
[4]; in 2-ethylhexyl benzoate
  Relative Solubility of Prothioconazole: Very Low (<10)
[4]; in 2-ethylhexyl lactate
  Relative Solubility of Prothioconazole: Medium (>20 to 30)
[4]; in 2-heptanone
  Relative Solubility of Prothioconazole: Low (10 to 20)
[4]; in Alkyl naphthalene mixture
  Relative Solubility of Prothioconazole: Very Low (<10)
[4]; in Benzyl acetate
  Relative Solubility of Prothioconazole: Low (10 to 20)
[4]; in Benzyl alcohol
  Relative Solubility of Prothioconazole: Medium (>20 to 30)
[4]; in Butyl benzoate
  Relative Solubility of Prothioconazole: Low (10 to 20)
[4]; in Butyl lactate
  Relative Solubility of Prothioconazole: Low (10 to 20)
[4]; in Butylene carbonate
  Relative Solubility of Prothioconazole: Very Low (<10)
[4]; in Cyclohexanone
  Relative Solubility of Prothioconazole: High (>30)
[4]; in Di-n-butyl carbonate
  Relative Solubility of Prothioconazole: Very Low (<10)
[4]; in Diethylene glycol monoethyl ether
  Relative Solubility of Prothioconazole: High (>30)
[4]; in Ethyl Diglycol Acetate
  Relative Solubility of Prothioconazole: Very Low (<10)
[4]; in Isoparaffin
  Relative Solubility of Prothioconazole: Very Low (<10)
[4]; in Isopropyl benzoate
  Relative Solubility of Prothioconazole: Very Low (<10)
[4]; in Methyl oleate
  Relative Solubility of Prothioconazole: Very Low (<10)
[4]; in Methyl salicylate
  Relative Solubility of Prothioconazole: Very Low (<10)
[4]; in Methyl-5-(Dimethylamino)-2-Methyl-5-Oxopentanoate
  Relative Solubility of Prothioconazole: High (>30)
[4]; in N,N dimethyl fatty acid amides
  Relative Solubility of Prothioconazole: High (>30)
[4]; in N-formyl morpholine and propylene carbonate
  Relative Solubility of Prothioconazole: Medium (>20 to 30)
[4]; in Pentanedioic acid, 2-methyl-1, 5-dimethyl ester
  Relative Solubility of Prothioconazole: Low (10 to 20)
[4]; in Polyethylene glycol
  Relative Solubility of Prothioconazole: Medium (>20 to 30)
[4]; in Polypropylene glycol
  Relative Solubility of Prothioconazole: Low (10 to 20)
[4]; in Propylene carbonate
  Relative Solubility of Prothioconazole: Very Low (<10)
[4]; in Soybean oil
  Relative Solubility of Prothioconazole: Very Low (<10)
[4]; in Sulfolane
  Relative Solubility of Prothioconazole: Low (10 to 20)
[4]; in Tributoxyethyl phosphate
  Relative Solubility of Prothioconazole: High (>30)
[4]; in dimethyl esters of adipic, glutaric and succinic acids
  Relative Solubility of Prothioconazole: Low (10 to 20)
